Literature values as cited in US20220117956A1, “LSD FOR THE TREATMENT OF ALZHEIMER'S DISEASE” (Eleusis Therapeutics US, Inc., priority 2015, published 2022).

How the values were obtained:
[1] = formulated for immediate release; depending on dosage, tolerance, body weight and age
[2] = immediate release LSD dosed at 1 μg/kg

## CCN(CC)C(=O)[C@@H]1C=C2c3cccc4[nH]cc(c34)C[C@H]2N(C)C1 [LSD, lysergic acid diethylamide]
[1]
  duration of LSD's effects: 6 to 12 h
[2]
  apparent plasma half-life: 5.1 h
  time of peak plasma concentration post-dose: 3 h
[2]; at 3 hours post-dose
  peak plasma concentration: 5 ng/mL
